Experimental data reported in patent EP4671240A1, “SALT CONTAINING AROMATIC RING DERIVATIVE ANTAGONIST, PREPARATION METHOD THEREFOR, AND APPLICATION THEREOF” (Jiangsu Hansoh Pharmaceutical Group Co., Ltd., priority 2023, dated 2024).

Biological target: T1, ETA receptors (Homo sapiens, UniProt P25101)
T1 construct: host or cells: HEK293
T1 sequence (P25101 21-427): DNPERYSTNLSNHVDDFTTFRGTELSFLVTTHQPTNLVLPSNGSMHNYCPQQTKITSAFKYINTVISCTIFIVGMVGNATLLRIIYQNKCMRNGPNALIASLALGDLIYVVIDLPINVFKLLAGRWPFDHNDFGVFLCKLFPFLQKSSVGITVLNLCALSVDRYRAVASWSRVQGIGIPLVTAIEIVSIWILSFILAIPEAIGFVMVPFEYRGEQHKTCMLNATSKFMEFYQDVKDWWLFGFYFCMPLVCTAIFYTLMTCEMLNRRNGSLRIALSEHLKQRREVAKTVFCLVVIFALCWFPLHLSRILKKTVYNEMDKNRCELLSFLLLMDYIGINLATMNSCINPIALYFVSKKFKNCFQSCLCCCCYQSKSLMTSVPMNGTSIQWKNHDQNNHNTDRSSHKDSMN
Test: effect on calcium current in cells stably expressing ETA receptors (HEK293-ETA, FLIPR, antagonist)
Assay type: cell-based
Conditions: 11 concentration points 10 µM to 0.17 nM
Excerpt: Test example 2. Determination of the effect of the compounds of the present invention on calcium current in cells stably expressing ETA receptors 1. Experimental objective: To test the antagonistic effect of compounds on HEK293-ETA cell activity 2. […] Experimental data processing method: FLIPR Tetra was used to read and collect the fluorescence signal value (RFU). The maximum RFU value was used to calculate the percent activation data based on the readings of the Low control (DMSO control) and High control (100 nM positive compound) experimental groups {% activation rate = (RFUsample - RFUlow control) / (RFUhigh control - RFUlow control)×100}. […]

Compound | IC50 [nM]
[2H]C([2H])(c1ccc(-c2ccccc2S(=O)(=O)Nc2noc(C)c2Cl)c(COCC)c1)N1C(=O)C2(CCCC2)N=C1CCCC [Example 2, 4'-((2-Butyl-4-oxo-1,3-diazaspiro[4.4]non-1-en-3-yl)methyl-d2)-N-(4-chloro-5-methylisoxazol-3-yl)-2'-(ethoxymethyl)-[1,1'-biphenyl]-2-sulfonamide] | 15.1
CCCCC1=NC2(CCCC2)C(=O)N1Cc1ccc(-c2ccccc2S(=O)(=O)Nc2noc(C)c2Cl)c(COCC)c1 [Example 8, 2-[4-[(2-Butyl-4-oxo-1,3-diazaspiro[4.4]non-1-en-3-yl)methyl]-2-(ethoxymethyl)phenyl]-N-(4-chloro-5-methyl-isoxazol-3-yl)benzenesulfonamide] | 14.9
